Patent US20250090437A1, “COSMETIC COMPOUNDING AGENT, COSMETIC AND PRODUCTION METHOD THEREOF” (MIYOSHI OIL & FAT CO., LTD., priority 2019, published 2025)

What was measured:
[1] = Sensory evaluation on healthy hair after using shampoo agent containing organic ammonium salt; parameters: species or system human; details: shampoo agent containing 3.0% by mass of the compound; treated 10 times
Procedure: (§1) Next, the mixture was cooled to a temperature of 30° C. or lower, and a purified water of an evaporated amount was then added thereto so that the whole hair treatment composition would be 100% by mass, followed by uniformly mixing them so as to obtain a hair treatment composition(s). The pH level of the hair treatment composition was adjusted to pH 6.0 by adding a citric acid or sodium hydroxide.
About 5 g of the healthy hair was taken and dipped into 350 ml of a seven-time dilute aqueous solution of each of the abovementioned hair treatment compositions (shampoo agents) at 35 to 40° C. so as to be washed. The healthy hair was then subjected to a rinsing treatment five times using 500 ml of a warm water of 35 to 40° C., followed by drying the same at 80° C., and then performing air drying at 25° C. Such series of treatment involving hair washing, rinsing and drying was repeated 10 times to then evaluate a cohesiveness of the hair, a moist feeling of the hair, a gloss of the hair, a surface smoothness of the hair and a non-stickiness on the surface of the hair, after performing air drying.

[2] = Water retention property and adherability with respect to healthy hair; parameters: species or system human; details: for Adherability to the healthy hair: compared to the compounds of comparative examples B1 to B8
Procedure: In the following evaluations, a human black hair produced by Beaulax Co., Ltd was used as a healthy hair. A damaged hair was prepared by repeatedly having the healthy hair permed and bleached three times.
An 80 wt % aqueous solution of each of the compounds B1 to B26 (content in terms of anhydride in the cases of the compounds B1 to B23) was prepared, followed by using a Karl Fischer moisture meter (KF-200 by Mitsubishi Chemical Analytech Co., Ltd.) to confirm that a moisture rate was 20.0 wt %. As a healthy hair, there was used a chemically untreated healthy hair (human black hair by Beaulax Co., Ltd). The moisture rate (pre-test moisture rate A) of the hair was measured by an infrared moisture meter (by Kett Electric Laboratory).
After immersion, the hair was taken out, and KimWipes were then used to wipe off the compound until a change in weight was no longer observed, followed by measuring the weight of the hair (post-test hair weight B). The hair from which the compound had been wiped off was then placed into a thermo-hygrostat set to 40° C. and 35 to 40% RH. A moisture rate after 24 hours (post-test moisture rate B) was then measured, followed by calculating a rate of reduction in moisture with the following formula. Likewise, instead of the 80 wt % aqueous solution, evaluation was also performed in a similar manner using only an ion-exchange water (comparative example B4).
Further, an adhesion rate of the compound adhering to the hair was calculated with the following formula. […]

[3] = Sensory evaluation on damaged hair after using shampoo agent containing organic ammonium salt; parameters: species or system human; details: shampoo agent containing the compound; treated 10 times
Procedure: as §1
The damaged hair was repeatedly treated 10 times in a similar manner as 3-1; evaluated were a cohesiveness of the hair, surface smoothness of the hair and waviness of the hair after performing air drying.

[4] = Surface resistance measurement of organic ammonium salt; details: 0.7 g applied to polyurethane artificial leather; dried, coating in solid state
[5] = Sensory evaluation on healthy hair after using conditioner containing organic ammonium salt; parameters: species or system human; details: conditioner containing 3.0% by mass of the compound
Procedure: Here, 4.5% by mass of a stearyl alcohol (KALCOL 8688 by Kao Corporation), 2.0% by mass of a behenyl alcohol (KALCOL 220-80 by Kao Corporation) and 0.5% by mass of a phenoxyethanol (Hisolve EPH by TOHO Chemical Industry Co., Ltd.) were mixed together and heated to 75° C. to obtain a liquid A. Further, 3.0% by mass of a behentrimonium chloride (CATINAL DC-80 by TOHO Chemical Industry Co., Ltd.), 5.0% by mass of dipropylene glycol and 3.0% by mass of each of the compounds B11, B23, B26, B27 and B28 (content in terms of anhydride in the cases of the compounds B11 and B23) were added together, followed by adding a purified water thereto, and then melting them at 80° C., thus obtaining a liquid B. The liquid B was then gradually added to the liquid A, and stirring was performed at 75° C. for 20 min. Next, the mixture was cooled to a temperature of 40° C. or lower, and a purified water of an evaporated amount was then added thereto so that the whole hair treatment composition would be 100% by mass, followed by uniformly mixing them so as to obtain a hair treatment composition(s).
About 5 g of the healthy hair was dipped into and kept immersed in 150 g of a seven-time dilute aqueous solution of each of the abovementioned hair treatment compositions (conditioners) at 40° C. for 30 min. […] After air drying, a combing capability, cohesiveness and non-stickiness of the hair were evaluated.

[6] = Sensory evaluation on healthy hair after using organic ammonium salt; parameters: species or system human; details: compared to the compounds of the comparative examples
Procedure: (§2) Here, an 80 wt % aqueous solution(s) of each of the compounds B11, B12, B23, B26 and B27 (content in terms of anhydride in the cases of the compounds B11, B12 and B23) were prepared and used as samples. Next, one minute was spent in evenly applying 10.0 g of each sample to a bundle of the healthy hairs weighing about 10 g, using a brush; the bundle of the healthy hairs was then left for 5 min. After leaving it for 5 min, the bundle of the healthy hairs was rinsed with a hot water of 40° C. for 30 sec, and evaluated was a finger-combing capability at the time of performing washing. The hair bundle that had been rinsed was then dried with a towel and further subjected to air drying for a day, followed by evaluating items such as flexibility, finger-combing capability, texture, elasticity/resilience (feeling by bare hands), volume increase (visual evaluation), cohesiveness, moist feeling, surface smoothness, non-stickiness (feeling by bare hands) and gloss (visual evaluation), from the perspective of superiority or inferiority to a test hair bundle(s) uncoated with the sample.

[7] = Water confinement property test (barrier property); format: physicochemical; details: sample on filter paper over vial of water; 40° C., 25% RH, 24 hours
Procedure: Next, 20.0 g of an ion-exchange water was put into a 40 mL pierce vial bottle (by AS ONE Corporation.), followed by removing an inner lid (rubber plug) of the pierce vial bottle, placing on the pierce vial bottle the filter paper to which each sample had been applied, and then plugging the bottle with an outer lid.
Further, Wm1, Wm2, Sm1 and Sm2 in the formula below respectively represent the following numerical values.
Wm1: Weight of ion-exchange water in vial before storage (using filter paper to which only ion-exchange water had been applied)
Wm2: Weight of ion-exchange water in vial after 24 hours (using filter paper to which only ion-exchange water had been applied)
Sm1: Weight of ion-exchange water in vial before storage (using filter paper to which sample had been applied)
Sm2: Weight of ion-exchange water in vial after 24 hours (using filter paper to which sample had been applied)

[8] = Sensory evaluation on damaged hair after using organic ammonium salt; parameters: species or system human; details: compared to the compounds of the comparative examples
Procedure: as §2, with “damaged” for “healthy”, “as” for “as flexibility, finger-combing capability, texture,”, “hands),” for “hands), volume increase (visual evaluation),”, “cohesiveness,” for “cohesiveness, moist feeling,”, “smoothness” for “smoothness, non-stickiness (feeling by bare hands)”, “non-waviness,” for “gloss (visual evaluation),”

[9] = Permeability to skin (horny layer tape stripping method); format: in vivo; details: extraction liquid, an hour after application to the arm, HPLC
Procedure: Skin permeability was evaluated by a horny layer tape stripping method. […] A sample was applied to the arm and then left thereon for an hour before performing tape stripping on the horn by eight layers. An adhered substance on this tape was then extracted with an ion-exchange water over the course of 10 min, followed by filtrating an extraction liquid thus obtained with a 0.2 μm filter, and then quantifying, via HPLC, the amount of each of the compounds C20, C64 and C97 in each extraction liquid filtrated.

[10] = Stability of ascorbic acid-based compound (coloration); format: physicochemical; parameters: key to Appearance (Visual evaluation) Immediately after preparatiom / Appearance (Visual evaluation) After 7 days 50° C. / Appearance (Visual evaluation) After 7 days Room temperature: ⊚: Colorless and transparent; ∘: Light yellow; Δ: Yellow; x: Brown to black; details: 33 wt % aqueous solution
Procedure: With regard to a 33 wt/% aqueous solution of each of the compounds C46, C49 and C98 to C100 and water, a stability in an aqueous solution condition was visually evaluated. An evaluation method was such that there was prepared a 33 wt % aqueous solution of each of the compounds C46, C49 and C98 to C100, the aqueous solution was then left to stand still at room temperature or in a thermostatic bath of 50° C. for seven days; coloration before and after the still standing was visually confirmed. The evaluation criteria were as follows. • ⊚: Colorless and transparent • ∘: Light yellow • Δ: Yellow • x: Brown to black

CC(N)(CO)CO.O=C1O[C@H]([C@@H](O)CO)C(O)=C1O [Compound B7]
Sensory evaluation of healthy hair after shampoo agent (cohesiveness, moist feeling, gloss, smoothness, non-stickiness) [1]: favorable | Compound adhesion rate ([2]; healthy hair immersed 60 min in 80 wt % aqueous solution): 2.4% | Post-test moisture rate ([2]; healthy hair immersed 60 min in 80 wt % aqueous solution, after 24 hours at 40° C., 35 to 40% RH, pre-test 7.6%): 6.0% | Rate of reduction in moisture ([2]; healthy hair, 80 wt % aqueous solution, 24 hours at 40° C., 35 to 40% RH): 21%

CC(O)C(=O)[O-].[Na+] (centres unmarked) [Compound B28, sodium lactate]
Sensory evaluation of damaged hair after shampoo agent (cohesiveness, surface smoothness, waviness) [3]: inferior surface smoothness | Sensory evaluation of healthy hair after shampoo agent (cohesiveness, moist feeling, gloss, smoothness, non-stickiness) [1]: inferior in general | Surface resistance value [4]: 2×10^8 Ω | Combing capability, cohesiveness and non-stickiness of healthy hair after conditioner [5]: poor hair cohesiveness

CCCCC/C=C\C/C=C\CCCCCCCC(=O)OCC(N)(CO)CO [Compound B31, 2-amino-2-hydroxymethyl-1,3-propanediol linoleate]
Sensory evaluation on healthy hair (flexibility, finger-combing, texture, elasticity/resilience, volume, cohesiveness, moist feeling, smoothness, non-stickiness, gloss) [6]: superior | Water evaporation inhibition rate [7]: 48.1% | Adherability to the healthy hair [2]: higher adherability | Sensory evaluation on damaged hair (elasticity/resilience, cohesiveness, surface smoothness, suppression of waviness) [8]: superior

CC(C)CCCCCCCCCCCCCCC(=O)OCC(C)(N)CO (centres unmarked) [Compound B35, 2-amino-2-methyl-1,3-propanediol isostearate]
Sensory evaluation on healthy hair (flexibility, finger-combing, texture, elasticity/resilience, volume, cohesiveness, moist feeling, smoothness, non-stickiness, gloss) [6]: superior | Adherability to the healthy hair [2]: higher adherability | Sensory evaluation on damaged hair (elasticity/resilience, cohesiveness, surface smoothness, suppression of waviness) [8]: superior

CC(O)C(=O)[O-].[K+] (centres unmarked) [Compound C97, potassium lactate]
Compound concentration ([9]; Tape stripping layer 1): 0.020 ml/L | Compound concentration ([9]; Tape stripping layer 2): 0.017 ml/L | Compound concentration ([9]; Tape stripping layer 3): 0.016 ml/L | Compound concentration ([9]; Tape stripping layer 4): 0.009 ml/L | Compound concentration ([9]; Tape stripping layer 5): 0.008 ml/L | Compound concentration ([9]; Tape stripping layer 6): 0.006 ml/L | Compound concentration ([9]; Tape stripping layer 7): 0.006 ml/L | Compound concentration ([9]; Tape stripping layer 8): 0.006 ml/L

O=C1O[C@H]([C@@H](O)CO)C(O)=C1O [Compound C98, ascorbic acid]
Appearance (Visual evaluation) After 7 days 50° C. [10]: x | Appearance (Visual evaluation) After 7 days Room temperature [10]: x | Appearance (Visual evaluation) Immediately after preparatiom [10]: ⊚

O=C1O[C@H]([C@@H](O)CO)C(O)=C1O[C@H]1O[C@H](CO)[C@@H](O)[C@H](O)[C@H]1O [Compound C99, ascorbic acid glucoside]
Appearance (Visual evaluation) After 7 days 50° C. [10]: Δ~x | Appearance (Visual evaluation) After 7 days Room temperature [10]: ○ | Appearance (Visual evaluation) Immediately after preparatiom [10]: ⊚

O=C1O[C@H]([C@@H](O)CO)C([O-])=C1OP(=O)([O-])[O-].[Na+].[Na+].[Na+] [Compound C100, sodium ascorbyl phosphate]
Appearance (Visual evaluation) After 7 days 50° C. [10]: Δ~x | Appearance (Visual evaluation) After 7 days Room temperature [10]: ○~Δ | Appearance (Visual evaluation) Immediately after preparatiom [10]: ⊚
